Experimental findings from patent US9676760B2, “Fused heterocyclic compounds as ion channel modulators” (Gilead Sciences, Inc., priority 2011, dated 2017) are described below.

The structures appear in SMILES notation.

Common to all, as to assay type: cell-based
Assay [1] has as its target T1, wild-type human cardiac sodium channel, hNav1.5 (Homo sapiens, UniProt Q14524). Nature of the assay: Late INa screening assay (QPatch whole cell patch clamp, HEK293). In short, it runs like this: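 HEK293 stably expressing hNav1.5 without beta subunits, recorded at 23-25° C. Late current was induced by 10 μM tefluthrin. Cells were depolarized from −120 mV to −20 mV for 250 ms at 0.1 Hz. Compounds were tested at 1 μM in extracellular solution, with baseline taken in 0Na-ECF; output is percent block of late INa.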
For orientation: In patch-clamp work, channel activity is measured electrically.

Assay [2] has as its target T2, hNav 1.1 sodium channel isoform (Homo sapiens, UniProt P35498).
T2 construct: expressed in transfected cells; host or cells: HEK293, transient transfection (Qiagen Superfect)
Description: hNav1.1 whole-cell voltage-clamp assay. The following applies: % Inhibition at 1 uM; use-dependent block, 10 Hz; read-out: NAV1.1* UDB-10HZ.

Assay [3] concerns the target T3, hNav 1.2 sodium channel isoform (Homo sapiens, UniProt Q99250).
T3 construct: expressed in transfected cells
Nature of the assay: hNav1.2 whole-cell voltage-clamp assay. As to conditions: use-dependent block, 10 Hz, read-out: NAV1.2* UDB-10HZ. As to the method:
Wild-type (WT) cDNA stably transfected in Chinese hamster ovary (CHO) cells is used to record INa. Unless otherwise noted, all reagents are purchased from Sigma-Aldrich (St Louis, Mo., U.S.A.).
Whole-cell voltage-clamp recordings are used to measure the biophysical properties of WT. […] Cells are allowed to stabilize for 10 min after establishment of the whole-cell configuration before current is measured. Series resistance is compensated 90% to assure that the command potential is reached within microseconds with a voltage error<2 mV. Leak currents are subtracted by using an online P/4 procedure and all currents are low-pass Bessel filtered at 5 kHz and digitized at 50 kHz.
For clarity, representative ramp currents are low pass filtered off-line at 50 Hz. Specific voltage-clamp protocols assessing channel activation, fast inactivation and availability during repetitive stimulation are used. Results are presented as mean±SEM.
Tonic block of peak current is measured using a step to −10 mV (20 ms) from a holding potential of −120 mV (0.2 Hz). Use-dependent block of peak current is measured during pulse number 300 of a pulse train (−10 mV, 5 ms, 300 pulses, 10 Hz or 25 Hz) from a holding potential of −120 mV. Two sequential pulse train stimulations are averaged to obtain mean current traces for each recording condition, which are then used for offline subtraction and analysis.
For use-dependent studies, cells are stimulated with depolarizing pulse trains (−10 mV, 5 ms, 300 pulses, 10 and 25 Hz) from a holding potential of −120 mV. Currents are then normalized to the peak current recorded in response to the first pulse in each frequency train. For tonic block studies, peak current is evaluated in response to a 20 ms depolarization to −10 mV (0.2 Hz). […] Results are presented as mean±SEM.
A stock solution of 10 mM compound of Formula I is prepared in 0.1 M HCl or DMSO. […] The final DMSO concentration was kept at 0.1% in all solutions. Direct application of the perfusion solution to the clamped cell is achieved using the Perfusion Pencil system (Automate, Berkeley, Calif.). Direct cell perfusion is driven by gravity at a flow rate of 350 μL/min using a 250 micron tip. This system sequesters the clamped cell within a perfusion stream and enables complete solution exchange within 1 second. The clamped cell is perfused continuously starting immediately after establishing the whole-cell configuration. Control currents are measured during control solution perfusion.
Solutions are perfused for three minutes prior to current recordings to allow equilibrium (tonic) drug block. Tonic block of peak currents is measured from this steady-state condition. Three sequential current traces are averaged to obtain a mean current for each recording. The mean current traces are utilized for offline analysis. Use-dependent block of peak current is measured during pulse number 300 of the pulse train, (−10 mV, 5 ms, 300 pulses, 10 Hz) from a holding potential of −120 mV.

Assay [4] concerns the target T1, wild-type human cardiac sodium channel, hNav1.5. Nature of the assay: Peak INa screening assay (tonic and use-dependent block). The following applies: compound at 1 μM. The method, boiled down:
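Whole-cell automated patch clamp (QPatch) at 23–25°C on HEK293 cells stably expressing hNav1.5 alpha subunit only, with CsF/CsCl pipette solution, pH 7.4. Compound at 1 μM in extracellular solution; bath Na+ could be cut to 20 mM with a nonpermeant cation. Tonic block measured at 0.1 Hz, use-dependent block at 3 Hz.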

[5] abbreviates: HEK293, % Inhibition at 1 uM, read-out: Late INa*.
The mark [6] stands for this setting: HEK293, percent block of late INa, compound at 1 μM, 10 μM Tefluthrin, read-out: Late INa 1 μM.
The mark [7] stands for this setting: tonic block of peak INa, 0.1 Hz, read-out: Peak TB 1 μM.
The mark [8] stands for this setting: use-dependent block of peak INa, 3 Hz, read-out: Peak UDB 1 μM.

T3 sequence (Q99250 whole entry, canonical isoform): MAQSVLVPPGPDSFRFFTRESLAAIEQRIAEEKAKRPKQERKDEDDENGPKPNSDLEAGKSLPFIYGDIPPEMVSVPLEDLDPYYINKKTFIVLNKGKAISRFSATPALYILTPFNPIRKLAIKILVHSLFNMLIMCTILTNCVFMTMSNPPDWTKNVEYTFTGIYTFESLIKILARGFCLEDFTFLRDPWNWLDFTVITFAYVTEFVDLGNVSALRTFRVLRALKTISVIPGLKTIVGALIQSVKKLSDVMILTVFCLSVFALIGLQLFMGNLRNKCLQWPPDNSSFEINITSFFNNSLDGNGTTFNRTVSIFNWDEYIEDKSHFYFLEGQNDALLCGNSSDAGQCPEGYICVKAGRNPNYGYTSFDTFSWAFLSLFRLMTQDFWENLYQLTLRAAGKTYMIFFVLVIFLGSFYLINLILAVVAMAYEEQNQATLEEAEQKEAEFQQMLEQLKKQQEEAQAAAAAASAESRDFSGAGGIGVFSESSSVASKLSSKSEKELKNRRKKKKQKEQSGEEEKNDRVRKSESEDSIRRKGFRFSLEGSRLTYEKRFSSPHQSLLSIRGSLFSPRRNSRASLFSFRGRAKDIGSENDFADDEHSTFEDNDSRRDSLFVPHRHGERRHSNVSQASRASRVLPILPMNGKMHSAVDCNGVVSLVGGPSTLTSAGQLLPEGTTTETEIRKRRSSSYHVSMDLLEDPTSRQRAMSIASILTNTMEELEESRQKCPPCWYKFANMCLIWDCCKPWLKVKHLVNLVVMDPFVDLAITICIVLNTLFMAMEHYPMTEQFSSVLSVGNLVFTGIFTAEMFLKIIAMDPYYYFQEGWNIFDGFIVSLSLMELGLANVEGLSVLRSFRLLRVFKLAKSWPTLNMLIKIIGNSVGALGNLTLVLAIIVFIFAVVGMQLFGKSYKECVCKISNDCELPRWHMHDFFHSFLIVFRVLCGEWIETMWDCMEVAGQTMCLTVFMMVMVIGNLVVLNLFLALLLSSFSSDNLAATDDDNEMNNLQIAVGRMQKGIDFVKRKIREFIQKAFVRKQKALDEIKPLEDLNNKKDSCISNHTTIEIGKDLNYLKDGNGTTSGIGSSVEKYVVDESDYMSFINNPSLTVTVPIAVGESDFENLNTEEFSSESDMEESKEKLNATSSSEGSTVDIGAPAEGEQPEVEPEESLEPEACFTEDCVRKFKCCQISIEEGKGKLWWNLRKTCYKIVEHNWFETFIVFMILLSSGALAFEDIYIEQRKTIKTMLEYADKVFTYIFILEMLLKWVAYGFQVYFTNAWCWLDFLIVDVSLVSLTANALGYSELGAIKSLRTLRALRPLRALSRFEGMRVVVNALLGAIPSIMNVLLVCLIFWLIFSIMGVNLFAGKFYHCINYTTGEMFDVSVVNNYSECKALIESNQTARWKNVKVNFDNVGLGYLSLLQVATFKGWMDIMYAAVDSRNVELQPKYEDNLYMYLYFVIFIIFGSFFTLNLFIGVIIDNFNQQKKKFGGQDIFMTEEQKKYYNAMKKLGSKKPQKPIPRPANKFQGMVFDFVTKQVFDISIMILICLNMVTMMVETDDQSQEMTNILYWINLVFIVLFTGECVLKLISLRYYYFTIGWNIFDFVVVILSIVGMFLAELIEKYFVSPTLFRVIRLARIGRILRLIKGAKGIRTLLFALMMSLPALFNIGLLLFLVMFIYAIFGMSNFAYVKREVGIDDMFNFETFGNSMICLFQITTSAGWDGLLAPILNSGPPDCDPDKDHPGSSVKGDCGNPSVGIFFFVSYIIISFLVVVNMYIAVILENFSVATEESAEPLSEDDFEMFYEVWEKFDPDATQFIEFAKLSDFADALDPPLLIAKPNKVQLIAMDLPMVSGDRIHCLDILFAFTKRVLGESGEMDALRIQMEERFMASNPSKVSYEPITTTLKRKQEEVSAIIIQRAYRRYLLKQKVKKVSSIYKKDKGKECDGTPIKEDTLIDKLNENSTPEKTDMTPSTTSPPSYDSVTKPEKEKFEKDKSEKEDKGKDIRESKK
T1 sequence (Q14524 whole entry): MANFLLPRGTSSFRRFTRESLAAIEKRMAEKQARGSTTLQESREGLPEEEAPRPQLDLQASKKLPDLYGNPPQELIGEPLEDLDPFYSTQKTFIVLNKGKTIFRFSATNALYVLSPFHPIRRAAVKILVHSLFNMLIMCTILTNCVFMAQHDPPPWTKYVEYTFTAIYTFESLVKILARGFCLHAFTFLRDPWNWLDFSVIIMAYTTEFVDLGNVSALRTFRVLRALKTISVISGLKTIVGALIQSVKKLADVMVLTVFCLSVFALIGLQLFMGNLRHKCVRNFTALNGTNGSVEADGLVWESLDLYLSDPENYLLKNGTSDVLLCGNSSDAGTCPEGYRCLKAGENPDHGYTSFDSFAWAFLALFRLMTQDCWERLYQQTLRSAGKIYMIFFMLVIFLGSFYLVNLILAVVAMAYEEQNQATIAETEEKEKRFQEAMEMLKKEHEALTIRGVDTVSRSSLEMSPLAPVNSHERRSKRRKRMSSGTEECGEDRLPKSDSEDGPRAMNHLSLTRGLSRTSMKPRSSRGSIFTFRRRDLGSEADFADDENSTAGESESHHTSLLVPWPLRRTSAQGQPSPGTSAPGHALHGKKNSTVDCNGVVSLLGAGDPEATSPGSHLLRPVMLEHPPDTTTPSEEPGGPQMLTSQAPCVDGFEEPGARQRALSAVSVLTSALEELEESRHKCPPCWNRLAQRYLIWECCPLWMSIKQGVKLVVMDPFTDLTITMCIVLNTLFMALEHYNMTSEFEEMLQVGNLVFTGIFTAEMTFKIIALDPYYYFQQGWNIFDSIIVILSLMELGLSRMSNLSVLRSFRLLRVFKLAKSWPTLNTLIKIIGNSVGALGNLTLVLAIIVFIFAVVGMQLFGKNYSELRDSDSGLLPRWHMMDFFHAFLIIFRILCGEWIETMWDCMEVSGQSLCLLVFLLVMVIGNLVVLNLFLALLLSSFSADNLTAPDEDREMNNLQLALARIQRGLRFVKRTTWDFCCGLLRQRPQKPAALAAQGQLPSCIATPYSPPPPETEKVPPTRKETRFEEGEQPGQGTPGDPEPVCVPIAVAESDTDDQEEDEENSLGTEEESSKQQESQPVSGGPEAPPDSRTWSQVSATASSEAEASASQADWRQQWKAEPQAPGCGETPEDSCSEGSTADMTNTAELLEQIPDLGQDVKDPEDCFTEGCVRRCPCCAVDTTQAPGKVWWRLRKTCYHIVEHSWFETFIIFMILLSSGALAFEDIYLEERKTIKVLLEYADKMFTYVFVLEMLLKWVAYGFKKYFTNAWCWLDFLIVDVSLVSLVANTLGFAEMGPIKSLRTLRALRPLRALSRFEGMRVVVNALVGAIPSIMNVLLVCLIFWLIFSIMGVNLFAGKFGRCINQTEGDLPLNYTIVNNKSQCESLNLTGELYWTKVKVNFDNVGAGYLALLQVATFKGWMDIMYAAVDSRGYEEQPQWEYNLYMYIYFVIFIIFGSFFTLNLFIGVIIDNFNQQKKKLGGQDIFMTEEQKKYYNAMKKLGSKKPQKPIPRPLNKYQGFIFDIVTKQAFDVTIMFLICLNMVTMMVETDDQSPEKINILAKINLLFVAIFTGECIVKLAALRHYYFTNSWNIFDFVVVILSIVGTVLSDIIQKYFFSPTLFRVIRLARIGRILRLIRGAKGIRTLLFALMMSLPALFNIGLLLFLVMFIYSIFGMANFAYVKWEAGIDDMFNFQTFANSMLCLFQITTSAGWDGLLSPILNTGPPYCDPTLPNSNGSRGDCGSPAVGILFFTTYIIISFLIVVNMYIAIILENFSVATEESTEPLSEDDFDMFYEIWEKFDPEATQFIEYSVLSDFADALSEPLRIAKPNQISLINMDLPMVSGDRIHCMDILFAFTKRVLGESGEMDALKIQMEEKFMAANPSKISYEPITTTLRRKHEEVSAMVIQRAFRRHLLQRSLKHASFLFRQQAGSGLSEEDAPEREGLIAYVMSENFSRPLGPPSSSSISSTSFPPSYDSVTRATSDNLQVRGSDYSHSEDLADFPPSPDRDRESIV

In the case of `COc1cccnc1CN1CCOc2ccc(-c3ccc(OC(F)(F)F)cc3)cc2C1=O` [II-143, 4-((3-methoxypyridin-2-yl)methyl)-7-(4-(trifluoromethoxy)phenyl)-3,4-dihydrobenzo[f][1,4]oxazepin-5(2H)-one], the inhibition at 1 µM in assay [1] (setting [5]) was determined as 65%; in assay [1] (setting [6]), 65%; in assay [2] it was 29%; in assay [3], 44%.

Take `CC1CC=C(c2ccc3c(c2)C(=O)N(Cc2ncccn2)CCO3)CC1` (centres unmarked) [Compound V-5, 7-(4-methylcyclohex-1-enyl)-4-(pyrimidin-2-ylmethyl)-3,4-dihydrobenzo[f][1,4]oxazepin-5(2H)-one]: the inhibition at 1 µM is 49% in assay [1] (setting [5]); 49% in assay [1] (setting [6]); -18% in assay [2]; 5% in assay [4] (setting [7]); 5% in assay [4] (setting [8]); 3% in assay [3].

Turning to `N#Cc1cccc(CN2CCOc3ccc(-c4ccc(OC(F)(F)F)cc4)cc3C2=O)n1` [II-14, 6-((5-oxo-7-(4-(trifluoromethoxy)phenyl)-2,3-dihydrobenzo[f][1,4]oxazepin-4(5H)-yl)methyl)picolinonitrile], the inhibition at 1 µM came to 47% in assay [1] (setting [5]); 47% in assay [1] (setting [6]); 16% in assay [2]; 7% in assay [4] (setting [7]); 6% in assay [4] (setting [8]); 19% in assay [3].

For the compound `CN1CCOc2ccc(-c3ccc(OC(F)(F)F)cc3)cc2C1=O` [II-46, 4-methyl-7-(4-(trifluoromethoxy)phenyl)-3,4-dihydrobenzo[f][1,4]oxazepin-5(2H)-one], the inhibition at 1 µM came to 25% in assay [1] (setting [5]), 25% in assay [1] (setting [6]), 2% in assay [2] and 16% in assay [3].

As to `COc1cc(OC)nc(CN2CCOc3ccc(-c4ccc(OC(F)(F)F)cc4)cc3C2=O)n1` [II-42, 4-((4,6-dimethoxypyrimidin-2-yl)methyl)-7-(4-(trifluoromethoxy)phenyl)-3,4-dihydrobenzo[f][1,4]oxazepin-5(2H)-one], the inhibition at 1 µM in assay [1] (setting [5]) amounted to 34%; in assay [1] (setting [6]), 34%; in assay [2], 2%; in assay [3] it was 12%.

Turning to `Cc1cccnc1CN1CCOc2ccc(-c3ccc(OC(F)(F)F)cc3)cc2C1=O` [II-75, 4-((3-methylpyridin-2-yl)methyl)-7-(4-(trifluoromethoxy)phenyl)-3,4-dihydrobenzo[f][1,4]oxazepin-5(2H)-one], the inhibition at 1 µM in assay [1] (setting [5]) is 68%; in assay [1] (setting [6]), 68%; in assay [2], 35%; in assay [4] (setting [7]), 45%; in assay [4] (setting [8]) it was 59%; in assay [3], 52%.

On to `O=C1c2cc(-c3ccc(OC(F)(F)F)cc3)ccc2OCCN1CC1CC1` [II-10, 4-(cyclopropylmethyl)-7-(4-(trifluoromethoxy)phenyl)-3,4-dihydrobenzo[f][1,4]oxazepin-5(2H)-one], for which the inhibition at 1 µM in assay [1] (setting [5]) is 43%; in assay [1] (setting [6]), 43%; in assay [2], -4%; in assay [4] (setting [7]) it was 9%; in assay [4] (setting [8]), 2%; in assay [3], 9%.

For `Cc1ccnc(CN2CCOc3cnc(-c4ccc(OC(F)(F)F)cc4)cc3C2=O)n1` [XII-8, 4-((4-methylpyrimidin-2-yl)methyl)-7-(4-(trifluoromethoxy)phenyl)-3,4-dihydropyrido[4,3-f][1,4]oxazepin-5(2H)-one], the inhibition at 1 µM is 36% in assay [1] (setting [5]), 36% in assay [1] (setting [6]), 11% in assay [2] and 11% in assay [3].

Regarding `O=C1c2cc(-c3ccc(OC(F)(F)F)cc3)ccc2OCCN1Cc1ccc2ccccc2n1` [II-7, 4-(quinolin-2-ylmethyl)-7-(4-(trifluoromethoxy)phenyl)-3,4-dihydrobenzo[f][1,4]oxazepin-5(2H)-one], the inhibition at 1 µM in assay [1] (setting [5]) was 34%; in assay [1] (setting [6]) it was 34%; in assay [2], 0%; in assay [3], 13%.

Regarding `O=C1c2cc(-c3ccc(OC(F)(F)F)cc3)ncc2OCCN1Cc1ccccc1` [XII-1, 4-benzyl-7-(4-(trifluoromethoxy)phenyl)-3,4-dihydropyrido[4,3-f][1,4]oxazepin-5(2H)-one], the inhibition at 1 µM in assay [1] (setting [5]) was 53%; in assay [1] (setting [6]) it was 53%; in assay [2], -1%; in assay [4] (setting [7]), 25%; in assay [4] (setting [8]), 21%; in assay [3] it was -4%.

As to `CCc1ccc(-c2ccc3c(c2)C(=O)N(Cc2ncccn2)CCO3)cc1` [II-91, 7-(4-ethylphenyl)-4-(pyrimidin-2-ylmethyl)-3,4-dihydrobenzo[f][1,4]oxazepin-5(2H)-one], the inhibition at 1 µM in assay [1] (setting [5]) was 54%; in assay [1] (setting [6]) it was 54%; in assay [2], -9%; in assay [4] (setting [7]) it was 8%; in assay [4] (setting [8]), 11%; in assay [3], -3%.

Regarding `Cc1ccnc(CN2CCOc3ccc(-c4ccc(OC(F)(F)F)cc4)cc3C2=O)n1` [II-138, 4-((4-methylpyrimidin-2-yl)methyl)-7-(4-(trifluoromethoxy)phenyl)-3,4-dihydrobenzo[f][1,4]oxazepin-5(2H)-one], the inhibition at 1 µM in assay [1] (setting [5]) was 47%; in assay [1] (setting [6]), 47%; in assay [2], 21%; in assay [4] (setting [7]), 16%; in assay [4] (setting [8]) it was 23%; in assay [3] it was 40%.
